Assay results: publication PMC4893694, “Identification of potent maturation inhibitors against HIV-1 clade C” (Scientific Reports, 2016)

Assays:
[1] = Cytotoxicity assay (CellTitre-Blue) in HUT-R5; type: cell-based; conditions: human, HUT-R5 cells; HUT-R5, 4 days
Method: (§1) Cytotoxicity assays were performed using the CellTitre-Blue Cell Viability Assay kit (Promega, USA) as per manufacturer’s recommendations. HEK-293T and HUT-R5 cell lines were maintained in the presence of serial dilutions of MIs for 4 days and treated with CellTitre-Blue reagent for 4 h at 37 °C. The fluorescent signals were recorded at 530/25excitation and 590/35emission using BioTek microplate reader.

[2] = Cytotoxicity assay (CellTitre-Blue) in HEK-293T; type: cell-based; conditions: human, HEK-293T cells
Method: as §1

[3] = tested on: HIV-1 clade C K3016 virus; assay: Antiviral assay, spreading HIV-1 infection in HUT-R5 T-cell line (p24 reduction); type: cell-based; conditions: Human immunodeficiency virus 1, T-cell, 192 h; HUT-R5 cells infected with K3016, 8 days, HIV-1 p24 in supernatant; representative of two independent experiments
Method: HUT-R5 cells were infected with K3016 virus and cultured for eight days in the presence of serial dilutions of each compound. Antiviral activity was monitored by reduction in HIV-1 p24 levels in culture supernatants.
HUT-R5 cells were infected with normalized HIV-1 clade C K3016 virus stocks at 37 °C for 1 h. Cells were then maintained for 8 days in the presence of serial dilutions of MIs. After 8 days, the HIV-1 p24 concentration in the virus supernatants was measured to monitor virus replication.

[4] = tested on: HIV-1 clade C molecular clone IndieC1 (CA-SP1 processing); conditions: HEK-293T transfected with IndieC1, increasing concentrations 0.1–5.0 μM, western blot
Method: (§2) Viral supernatants were pelleted and separated on SDS-PAGE followed by western blotting using HIV-IgG antibody.
(§3) 24 h post-transfection, the culture medium was replaced with fresh DMEM and incubated for another 2 h. MIs were maintained in the culture throughout transfection. […] The clarified supernatants were filtered (pore size 0.45 μm filter disc) to remove residual cellular contaminants. For determination of viral infectivity, the unconcentrated virus was used to infect TZM-bl cells.
(§4) To measure accumulation of CA-SP1, immunoblot analysis of virus-associated proteins was performed. The virus pellet was resuspended in radioimmunoprecipitation assay (RIPA) buffer (50 mM Tris-HCl pH 8.0, 150 mM sodium chloride, 1.0% NP-40, 0.5% sodium deoxycholate, 0.1% SDS) containing 1 × protease inhibitor cocktail (Roche, Germany). […] The proteins were visualized by enhanced chemiluminescence (Pierce, USA) and the bands were quantified using ImageJ software (http://imagej.nih.gov/ij/).

[5] = tested on: HIV-1 clade C molecular clone ZM247 (CA-SP1 processing); conditions: HEK-293T transfected with ZM247, increasing concentrations 0.1–5.0 μM, western blot
Method: as §2, §3, §4

[6] = tested on: HIV-1 clade B molecular clone NL4-3 (CA-SP1 processing); conditions: HEK-293T transfected with NL4-3, increasing concentrations 0.1–5.0 μM, western blot
Method: as §2, §3, §4

[7] = tested on: HIV-1 clade C molecular clone K3016 (CA-SP1 processing); type: cell-based; conditions: for activity (CA-SP1 accumulation): K3016, 10 nM; for accumulation of the CA-SP1 processing intermediate over a range of doses: K3016, 2–50 nM
Method: as §2, §3, §4

SMILES | CC50 at 4 days [1] [nM] | CC50 at 4 days [2] [nM] | IC50 [3] [nM] | accumulation of p25 (CA-SP1) [4] | accumulation of p25 (CA-SP1) [5] | accumulation of p25 (CA-SP1) [6] | accumulation of p25 (CA-SP1) ([7]; HEK-293T transfected with K3016, increasing concentrations 0.1–5.0 μM, western blot) | activity (CA-SP1 accumulation) [7] [%] | accumulation of the CA-SP1 processing intermediate over a range of doses [7]
C=C(C)C1CCC2(CCNCCCN3CCCC3)CCC3(C)C(CCC4C5(C)CCC(OC(=O)CC(C)(C)CC(=O)O)C(C)(C)C5CCC43C)C12 (stereo not shown) [Compound 7h] | > 1000 | > 1000 | 11.3 | – | – | – | – | – | –
C=C(C)[C@@H]1CC[C@]2(C(=O)O)CC[C@]3(C)[C@H](CC[C@@H]4[C@@]5(C)CC[C@H](OC(=O)CC(C)(C)C(=O)O)C(C)(C)[C@@H]5CC[C@]43C)[C@@H]12 [BVM, 3-0-(3′-3′-dimethylsuccinyl) betulinic acid, reference compound] | > 1000 | > 5000 | > 1000 | resistant | resistant | dose-dependent accumulation of p25 | resistant | – | –
C=C(C)C1CCC2(CCNC3CCN(CCO)CC3)CCC3(C)C(CCC4C5(C)CCC(OC(=O)CC(C)(C)CC(=O)O)C(C)(C)C5CCC43C)C12 (stereo not shown) [Compound 7s] | > 1000 | > 1000 | 1.3 | – | – | – | – | ~40 | dose-dependent accumulation
C=C(C)C1CCC2(CCNC3CCN(CC)CC3)CCC3(C)C(CCC4C5(C)CCC(OC(=O)CC(C)(C)CC(=O)O)C(C)(C)C5CCC43C)C12 (stereo not shown) [Compound 7r] | > 1000 | > 1000 | 1.5 | – | – | – | – | ~40 | dose-dependent accumulation
C=C(C)C1CCC2(CCNC3CCN(C)CC3)CCC3(C)C(CCC4C5(C)CCC(OC(=O)CC(C)(C)CC(=O)O)C(C)(C)C5CCC43C)C12 (stereo not shown) [Compound 7j] | > 1000 | > 1000 | 5.9 | – | – | – | – | – | –
C=C(C)C1CCC2(CCNCCN(C)C)CCC3(C)C(CCC4C5(C)CCC(OC(=O)CC(C)(C)CC(=O)O)C(C)(C)C5CCC43C)C12 (stereo not shown) [Compound 7m] | > 1000 | > 1000 | 1.4 | – | – | – | – | ~40 | dose-dependent accumulation
